PMC11931445, “A Novel Compound QO‐83 Alleviates Acute and Chronic Epileptic Seizures in Rodents by Modulating KV7 Channel Activity” (CNS Neuroscience & Therapeutics, 2025)

Assays:
[1] = system: liver tissue; experiment: Liver toxicity, 28 days gavage; type: in vivo, KM mice; conditions: for liver-body weight ratio compared to control: QO-83 20, Flupirtine 20, APAP 200 mg/kg/d
Description: Twenty-four KM mice, half male and half female, weighing between 18 and 22 g, were randomly divided into four groups, each consisting of six mice: a control group, an acetaminophen (APAP) group, a flupirtine (FM) group, and a QO-83 group. The treatment lasted for 28 days, and the drug solvent was a 0.8% sodium carboxymethyl cellulose solution. The control group received an equal amount of 0.8% sodium carboxymethyl cellulose solution. A single dose was administered to each group via gavage, and the dosage volume was calculated based on the body weight of the mice. The control group received 0.8% sodium carboxymethyl cellulose solution, the APAP group received acetaminophen at 200 mg/kg/d, the FM group received […] at 20 mg/kg/d, and the QO-83 group received QO-83 at 20 mg/kg/d. After 28 days of administration, the liver was isolated, fixed in 4% paraformaldehyde for at least 24 h, routinely embedded in paraffin, and sectioned into 3–5 μm continuous slices. Hematoxylin-eosin (HE) staining was performed to observe the pathological structure of the tissue. After staining with HE, the tissue was dehydrated using an alcohol gradient, cleared, and mounted for the observation of liver lesions under a light microscope.

[2] = target: T1, KV7.2 (Homo sapiens, UniProt O43526); experiment: Manual patch clamp, KV7 currents; type: cell-based; conditions: 20 μM XE991
T1 construct: expressed in transfected cells
Description: Pipettes (1–6 MΩ) were filled with a solution of KCl (145 mM), MgCl2 (1 mM), HEPES (10 mM), and EDTA (5 mM). The pH was adjusted to 7.2 with NaOH. Electrophysiological measurements were obtained using an AXON Multiclamp 700 B patch‐clamp amplifier. The bath solution contained NaCl (144 mM), KCl (5 mM), MgCl2 (1 mM), CaCl2 (2 mM), and D‐glucose (10 mM), with the pH adjusted to 7.4 using NaOH. The protocol involved an increase in voltage from −120 mV to 40 mV in increments of 10 mV to evoke a series of KV7 currents (1000 ms per pulse) in the bath solution. For details on cell culture, please see Appendix S1 2.2.1.
Statistical differences between multiple groups (mean ± SEM) were compared using one‐ or two‐way ANOVA. Electrophysiological data were analyzed using SPSS version 21 and OriginPro (version 9.1.0). P Peak inward currents obtained from activation protocols were calculated using the following equation: G = I/(Vm‐EK), where G is conductance, I is peak inward current, Vm is instantaneous membrane potential, and EK is equilibrium potential for the […] channel. Conductance data were normalized using maximum conductance and further fitted to the Boltzmann equation: G=Gmax+Gmin−Gmax/1+expVm−V1/2/k , where G is conductance, V1/2 is midpoint of activation, and k is slope factor. The “Spectrum” module of LabChart was used for data analysis of EEG signals, including the calculation of power density and averaging power spectral density (PSD).
Stable Chinese Hamster Ovary (CHO) cell lines expressing specific Kv7 channel subtypes, including KV7.2 and KV7.2/7.3, were cultured in Minimum Essential Medium (MEM) supplemented with 10% fetal calf serum, 1× nonessential amino acids, […], and […] hygromycin B. Concurrently, KV7.4 and KV7.5 channels were stably expressed in Human Embryonic Kidney 293A (HEK293A) cell lines and nurtured in Dulbecco's Modified Eagle Medium (DMEM) high glucose medium supplemented with 10% fetal bovine serum (FBS), […], and […] hygromycin B.

[3] = system: pilocarpine-induced seizures; experiment: Pilocarpine-induced status epilepticus model with EEG; type: in vivo, Sprague–Dawley (SD) rats
Source text: For animal experiments, we used adult male Sprague–Dawley (SD) rats weighing between 240 and 260 g. Isoflurane anesthesia was used for all operations. Rats were secured in a stereotaxic frame, and the anterior fontanelle was marked 3 mm posteriorly. Additionally, marks were made approximately 3 mm lateral to the midline on both sides to indicate the insertion points for the positive and negative electrodes. A ground electrode was placed subcutaneously in the occipital lobe to eliminate recording noise. Postoperatively, each animal was housed separately in a single cage and provided food and water ad libitum. After a 3‐day adaptation period, electroencephalograms (EEG) were recorded.
The experimental procedure commenced with an intraperitoneal injection of lithium chloride (127 mg/kg). After 24 h, subcutaneous scopolamine methyl nitrate (1 mg/kg) was administered. […] Twenty minutes later, status epilepticus (SE) was induced by administering pilocarpine (100 mg/kg, i.p.). SE was terminated 2 h later by administering 10% chloral hydrate.
The Pilo group, 2 mg/kg XE991 group, and 2 mg/kg XE991 + 1 mg/kg QO‐83 group received an intraperitoneal injection of lithium chloride (127 mg/kg) 24 h prior to testing. Following this, scopolamine methyl nitrate (1 mg/kg) was administered […], and after 10 min, each group was treated with 25% beta‐cyclodextrin, 2 mg/kg XE991, or 2 mg/kg XE991, respectively. After 15 min, 25% beta‐cyclodextrin, 25% beta‐cyclodextrin, or 1 mg/kg QO‐83 was administered. Finally, 25 min later, pilocarpine (100 mg/kg, i.p.) was administered to induce seizures.
Seizure severity was assessed using a standardized scale ranging from 1 to 5, adapted from previous research criteria. Stage 1 encompasses mouth and facial movements, including wet dog shakes. Stage 2 involves head nodding. Stage 3 is characterized by unilateral forelimb clonus. […] Finally, stage 5 manifests as clonus of all limbs accompanied by falling.

[4] = system: L02 cells; experiment: MTT cytotoxicity; type: cell-based, human; conditions: 100 μM; 24h and 48h
Description: Normal human liver L02 cells were cultured in RPMI-1640 complete medium and maintained in a humidified incubator at 37°C with 5% CO2. Cell status was observed daily, and the medium was changed every 1–2 days. During the experiment, cells in good condition and in the logarithmic growth phase were selected. After digestion and collection, the cells were evenly suspended, and the cell suspension concentration was adjusted to 5×10^4 cells/mL. A volume of 150 μL was inoculated per well in a 96-well plate, leaving the surrounding wells for the addition of sterilized PBS (100 μL per well) to prevent edge effects. The plate was then placed in an incubator for further incubation. After 12 h of culturing to allow cell adhesion, the culture medium was aspirated from the 96-well plate. Based on the control, QO-83 was added at concentrations of 0.1 μM, 0.3 μM, 1 μM, 3 μM, 10 μM, 30 μM, and 100 μM, along with Flupirtine (100 μM) in a concentration gradient of 150 μL per well, with six replicates for each group. The control group served as the normal control. The cultures were incubated for 24 and 48 h, respectively. After this period, the culture medium was removed, and 50 μL of 5 mg/mL MTT solution was added to each well, followed by continued incubation for 4 h. […] Finally, the absorbance was measured using a microplate reader (preheated for at least 15 min) at a wavelength of 490 nm.

SMILES	liver tissue pathology (HE staining) ([1]; QO-83 20 mg/kg/d, APAP 200 mg/kg/d)	liver-body weight ratio compared to control [1]	effect on QO-83-induced increase in KV7.2 channel current [2]	effect on EEG power density (0–50 Hz and δ, θ, α, β bands) ([3]; 2 mg/kg XE991, compared to PILO group)	seizure grade versus model group ([3]; 2 mg/kg XE991 alone)	seizure latency ([3]; 2 mg/kg XE991 alone, Pilo model 22.73 ± 6.03 min) [min]	effect on cell viability (MTT) [4]
CC(=O)Nc1ccc(O)cc1 [APAP, Acetaminophen]	significant pathological changes	increased significantly					
O=C1c2ccccc2C(Cc2ccncc2)(Cc2ccncc2)c2ccccc21 [XE991]			significantly inhibited the increase in KV7.2 channel current	significantly increased the power density	No significant differences	8.52 ± 4.73	
CCOC(=O)Nc1ccc(NCc2ccc(F)cc2)nc1N [Flupirtine]		increased significantly					significantly inhibited cell viability
